This test relates to P388 leukemia ip, CD2F1 mice, survival T/C. The experiment in a line: NCI In Vivo Anticancer Drug Screen. Data for tumor model P388 Leukemia (intraperitoneal) in CD2F1 (CDF1) mice. The note with it: endpoint: median survival time, higher = longer survival. In a few lines:
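Mice carrying the transplanted tumor received test compound or vehicle. Survival was recorded in each group, and the value is the treated-group measurement divided by that of the vehicle-treated control group.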

[1] abbreviates: dose: 60.0 mg/kg/injection, schedule: Q01DX005 (ip), vehicle: Klucel (hydroxypropylcellulose) (HPC).
Setting [2] is: dose: 120.0 mg/kg/injection, schedule: Q01DX005 (ip), vehicle: Klucel (hydroxypropylcellulose) (HPC).
Where [3] appears, read: dose: 25.0 mg/kg/injection, schedule: Q01DX009 (ip), vehicle: Klucel (hydroxypropylcellulose) (HPC).
[4] abbreviates: dose: 50.0 mg/kg/injection, schedule: Q01DX009 (ip), vehicle: Klucel (hydroxypropylcellulose) (HPC).
Where [5] appears, read: dose: 100.0 mg/kg/injection, schedule: Q01DX009 (ip), vehicle: Klucel (hydroxypropylcellulose) (HPC).
[6] abbreviates: dose: 60.0 mg/kg/injection, schedule: Q01DX005 (ip), vehicle: saline with Tween-80.
[7] abbreviates: dose: 120.0 mg/kg/injection, schedule: Q01DX005 (ip), vehicle: saline with Tween-80.
Where [8] appears, read: dose: 240.0 mg/kg/injection, schedule: Q01DX005 (ip), vehicle: saline with Tween-80.
The mark [9] stands for this setting: dose: 50.0 mg/kg/injection, schedule: Q01DX005 (ip), vehicle: Klucel (hydroxypropylcellulose) (HPC).
The mark [10] stands for this setting: dose: 50.0 mg/kg/injection, schedule: Q01DX005 (ip), vehicle: saline with Tween-80.
[11] abbreviates: dose: 200.0 mg/kg/injection, schedule: Q01DX005 (ip), vehicle: saline with Tween-80.
Where [12] appears, read: dose: 50.0 mg/kg/injection, schedule: Q01DX009 (ip), vehicle: saline with Tween-80.
The mark [13] stands for this setting: dose: 100.0 mg/kg/injection, schedule: Q01DX009 (ip), vehicle: saline with Tween-80.
[14] abbreviates: dose: 200.0 mg/kg/injection, schedule: Q01DX009 (ip), vehicle: saline with Tween-80.
The mark [15] stands for this setting: dose: 15.0 mg/kg/injection, schedule: Q01DX005 (ip), vehicle: saline with Tween-80.
Where [16] appears, read: dose: 30.0 mg/kg/injection, schedule: Q01DX005 (ip), vehicle: saline with Tween-80.
[17] abbreviates: dose: 50.0 mg/kg/injection, schedule: Q01DX009 (ip), vehicle: saline.
Where [18] appears, read: dose: 100.0 mg/kg/injection, schedule: Q01DX009 (ip), vehicle: saline.

SMILES strings stand for the structures. Several values for one entry are separate records, joined by “and”; a condition that tells them apart may be missing. Equal values may be shown once. Toxic doses and inconclusive results are not listed.

In the case of `CSc1ccc(C)cc1C(C)=O`, the T/C is, setting by setting: (dose: 50.0 mg/kg/injection, schedule: Q01DX005 (ip), vehicle: acetone) 93 % of control; (dose: 100.0 mg/kg/injection, schedule: Q01DX005 (ip), vehicle: acetone) 99 % of control; (dose: 200.0 mg/kg/injection, schedule: Q01DX005 (ip), vehicle: acetone) 100 % of control.
As to `COc1cccc2c1C(=O)c1nccc3cc4c(c-2c13)OCO4`, the T/C is 91 % of control (dose: 30.0 mg/kg/injection, schedule: Q01DX005 (ip), vehicle: Klucel (hydroxypropylcellulose) (HPC)); 90 % of control under setting [1]; 110 % of control under setting [2].
Take `C=CC12CC(=O)N3CCc4ccccc4C3(C1)C2`: the T/C is, setting by setting: (dose: 100.0 mg/kg/injection, schedule: Q04DX002 (ip), vehicle: Klucel (hydroxypropylcellulose) (HPC)) 110 % of control; (dose: 200.0 mg/kg/injection, schedule: Q04DX002 (ip), vehicle: Klucel (hydroxypropylcellulose) (HPC)) 100 % of control; (dose: 400.0 mg/kg/injection, schedule: Q04DX002 (ip), vehicle: Klucel (hydroxypropylcellulose) (HPC)) 97 % of control.
Turning to `O=C(CC(c1ccccc1)C(Sc1ccccc1)(Sc1ccccc1)Sc1ccccc1)c1ccccc1` (centres undefined), the T/C is 100 % of control under setting [3]; 100 % of control under setting [4]; 100 % of control and 105 % of control under setting [5].
`Cc1cn(C2CC3[O][Sn]([c]4ccccc4)([c]4ccccc4)[O]CC3O2)c(=O)[nH]c1=O` (centres undefined): the T/C (dose: 12.5 mg/kg/injection, schedule: Q01DX009 (ip), vehicle: saline) was 124 % of control and the T/C (dose: 25.0 mg/kg/injection, schedule: Q01DX009 (ip), vehicle: saline) was 100 % of control.
As to `CC1(CCC(=O)c2ccc3c(c2)OCO3)OCCO1`, the T/C is, setting by setting: under setting [6], 116 % of control; under setting [7], 105 % of control; under setting [8], 100 % of control.
As for `CN(C)CCSc1c2ccccc2nc2ccccc12`, the T/C runs as follows: (dose: 12.5 mg/kg/injection, schedule: Q01DX005 (ip), vehicle: Klucel (hydroxypropylcellulose) (HPC)) 110 % of control; (dose: 25.0 mg/kg/injection, schedule: Q01DX005 (ip), vehicle: Klucel (hydroxypropylcellulose) (HPC)) 110 % of control and 119 % of control; under setting [9], 100 % of control (2×) and 101 % of control.
Consider `NC(=O)c1[nH]ccc1NCc1ccccc1`, for which the T/C by setting is: under setting [10], 97 % of control; (dose: 100.0 mg/kg/injection, schedule: Q01DX005 (ip), vehicle: saline with Tween-80) 88 % of control; under setting [11], 97 % of control.
In the case of `CC1(C)CC(NCc2ccccc2)=CC(=S)N1`, the T/C under setting [9] was 100 % of control; the T/C (dose: 100.0 mg/kg/injection, schedule: Q01DX005 (ip), vehicle: Klucel (hydroxypropylcellulose) (HPC)) is 103 % of control; the T/C (dose: 200.0 mg/kg/injection, schedule: Q01DX005 (ip), vehicle: Klucel (hydroxypropylcellulose) (HPC)) is 93 % of control.
On to `C=CCn1c(-c2ccccc2Cl)n[nH]c1=S`, for which the T/C was 102 % of control under setting [12], 95 % of control under setting [13] and 99 % of control under setting [14].
Turning to `COc1cc2cc(c1Cl)N(C)C(=O)/C=C/C1(C)OC1C(C)C1CC(O)(NC(=O)O1)C(OC)/C=C/C=C(\C)C2OC` (centres undefined), the T/C is, setting by setting: (dose: 4.0 micrograms/kg/injection, schedule: Q01DX009 (ip), vehicle: distilled water + alcohol) 103 % of control; (dose: 8.0 micrograms/kg/injection, schedule: Q01DX009 (ip), vehicle: distilled water + alcohol) 100 % of control; (dose: 64.0 micrograms/kg/injection, schedule: Q01DX009 (ip), vehicle: distilled water + alcohol) 99 % of control; (dose: 128.0 micrograms/kg/injection, schedule: Q01DX009 (ip), vehicle: distilled water + alcohol) 91 % of control.
Take `CCOC(=O)C(NC(=O)C(CO)n1c(-c2ccccc2)c(-c2ccccc2)oc1=O)C(=O)OCC` (centres undefined): the T/C was 105 % of control under setting [6], 104 % of control under setting [7] and 90 % of control under setting [8].
Take `Nc1nnc2nc(CC(=O)c3cccc([N+](=O)[O-])c3Cl)c(=O)[nH]n12`: the T/C by setting is: under setting [15], 106 % of control; under setting [16], 98 % of control; under setting [6], 100 % of control and 103 % of control.
In the case of `O/N=C/C(=Nc1ccc(-c2ccc(N=C(/C=N/O)NO)cc2)cc1)NO`, the T/C is, setting by setting: under setting [1], 103 % of control; under setting [2], 102 % of control; (dose: 240.0 mg/kg/injection, schedule: Q01DX005 (ip), vehicle: Klucel (hydroxypropylcellulose) (HPC)) 97 % of control.
On to `COc1cc(N(C)C)c(OC)cc1/C=C\c1ccnc2ccccc12`, for which the T/C (dose: 100.0 mg/kg/injection, schedule: Q04DX003 (ip), vehicle: saline with Tween-80) is 111 % of control.
`CC(/C=C/c1ccccc1)=N\NC(N)=O`: the T/C is, setting by setting: under setting [17], 105 % of control; under setting [18], 115 % of control; (dose: 200.0 mg/kg/injection, schedule: Q01DX009 (ip), vehicle: saline) 118 % of control.
As for `CC(C)[C@H](C)C(=O)C1OCOC(C2CC(=O)NC(=O)C2)[C@@H]1O` (some centres undefined), the T/C reads like this: (dose: 0.01 mg/kg/injection, schedule: Q01DX009 (ip), vehicle: distilled water + alcohol) 102 % of control; (dose: 0.03 mg/kg/injection, schedule: Q01DX009 (ip), vehicle: distilled water + alcohol) 109 % of control; (dose: 0.06 mg/kg/injection, schedule: Q01DX009 (ip), vehicle: distilled water + alcohol) 109 % of control; (dose: 0.12 mg/kg/injection, schedule: Q01DX009 (ip), vehicle: distilled water + alcohol) 100 % of control.
`CC1NNC(=S)NN1`: the T/C is 101 % of control under setting [15] and 101 % of control under setting [16].
Turning to `O=C1NC(=O)c2c1c1cnn(-c3ccccc3)c1n1cccc21`, the T/C runs as follows: (dose: 7.5 mg/kg/injection, schedule: Q01DX005 (ip), vehicle: saline with Tween-80) 96 % of control; under setting [15], 96 % of control; under setting [16], 87 % of control.
As to `CSC(=S)Nc1nc2ccc(Cl)cc2s1`, the T/C is 104 % of control (dose: 6.25 mg/kg/injection, schedule: Q01DX009 (ip), vehicle: Klucel (hydroxypropylcellulose) (HPC)); 111 % of control (dose: 12.5 mg/kg/injection, schedule: Q01DX009 (ip), vehicle: Klucel (hydroxypropylcellulose) (HPC)); 88 % of control under setting [3].
As for `CCCCn1c2nc(=O)[nH]c(=O)c-2cc2ccccc21`, the T/C (dose: 25.0 mg/kg/injection, schedule: Q01DX009 (ip), vehicle: saline with Tween-80) was 98 % of control; the T/C under setting [12] was 94 % of control; the T/C under setting [13] is 91 % of control.
With `Cc1cccnc1I`, the T/C is, setting by setting: under setting [6], 98 % of control; under setting [7], 99 % of control; under setting [8], 101 % of control.
For the molecule `O=C(CCl)NCCCl`, the T/C was 97 % of control under setting [17] and 100 % of control under setting [18].
As to `O=[N+]([O-])c1ccc(/C=C/c2cccs2)c([N+](=O)[O-])c1`, the T/C is 105 % of control under setting [4]; 94 % of control under setting [5]; 88 % of control (dose: 200.0 mg/kg/injection, schedule: Q01DX009 (ip), vehicle: Klucel (hydroxypropylcellulose) (HPC)).
`CC[C@H](CC[C@@H](C)C1CC[C@H]2[C@@H]3CC=C4C[C@@H](OP(=O)(N5CC5)N5CC5)CC[C@]4(C)[C@H]3CC[C@]12C)C(C)C` (some centres undefined): the T/C by setting is: under setting [13], 152 % of control; under setting [14], 163 % of control and 171 % of control; (dose: 400.0 mg/kg/injection, schedule: Q01DX009 (ip), vehicle: saline with Tween-80) 98 % of control.
Take `O=C1CN(/N=C/c2ccc(-c3ccc(F)cc3)o2)C(=O)N1`: the T/C (dose: 50.0 mg/kg/injection, schedule: Q01DX001 (ip), vehicle: saline with Tween-80) is 103 % of control; the T/C (dose: 100.0 mg/kg/injection, schedule: Q01DX001 (ip), vehicle: saline with Tween-80) is 100 % of control; the T/C (dose: 200.0 mg/kg/injection, schedule: Q01DX001 (ip), vehicle: saline with Tween-80) is 100 % of control; the T/C (dose: 400.0 mg/kg/injection, schedule: Q01DX001 (ip), vehicle: saline with Tween-80) was 100 % of control.
For `O=c1c2[nH]c3ccccc3sc=2c(=O)n1-c1ccccc1Cl`, the T/C is, setting by setting: under setting [10], 98 % of control; under setting [7], 98 % of control; under setting [11], 97 % of control.

(Values after PubChem BioAssay AID330 (DTP/NCI, 2004).)
